Test results reported in patent US20240400551A1, “NEK7 INHIBITORS” (HALIA THERAPEUTICS, INC., priority 2021, published 2024).

Tested on: IL-1β release from THP-1 cells
Assay: IL-1β release assay
Type: cell-based
Details: Homo sapiens; PMA-treated THP-1 cells, 250 ng/mL LPS then 20 μM nigericin; cleaved IL-1β in media
Experimental: Approximately 1.5 million THP-1 cells were plated in each well of a 6-well TC plate and incubated with 40 nM PMA in RPMI (10% FBS, 1% Penstrep) for 24 hours. The media was then removed and cells were rested in RPMI (10% FBS, 1% Penstrep) for 24 hours after which time the media was removed and cells were pre-treated for 2 hours with various concentrations of compounds of interest (typically serial 3-fold dilution in RPMI+5% FBS, concentrations ranging from 1 μM to 0.5 nM) in RPMI (5% FBS). The media was again removed and cells were incubated with 250 ng/mL LPS and compounds of interest (concentrations as above) in RMPI (5% FBS) for 2 hours. The media was removed for a last time and cells were incubated with 20 μM nigericin and compounds of interest (concentrations as above) in Opti-MEM for 30 minutes. Cell media was then collected and the amount of cleaved IL-1β was determined using a JESS instrument (Protein Simple) and standard protocols. Cleaved Il-1β antibody was obtained from Cell Signaling (catalogue #83186S) and was used at 1:20 dilution in antibody diluent 2. Protein Simple 1× anti-Rabbit HRP secondary antibody was used along with Protein Simple luminol and peroxide for chemiluminescent detection. Primary antibody incubation time was increased from 30 minutes to 60 minutes.

IC50: > 1000 nM
Structure (SMILES): O=C(Nc1ccc(Oc2ccnc3[nH]cc(Cl)c23)cc1F)Nc1cc(C2CC2)nn1-c1ccccc1 [Compound I-11, 1-(4-((3-chloro-1H-pyrrolo[2,3-b]pyridin-4-yl)oxy)-2-fluorophenyl)-3-(3-cyclopropyl-1-phenyl-1H-pyrazol-5-yl)urea]
